Data taken from US6342504B1, “Aromatic heterocyclic derivatives as enzyme inhibitors” (priority 1994, dated 2002).
Counter-ions that a name gives are not always drawn. Like-named read-outs stand apart in the source and are kept apart here.

Tests used:
[1] = tested on: FeCl3-induced occlusive thrombus in rat carotid artery; test: Rat model of FeCl3-induced platelet-dependent arterial thrombosis; type: in vivo; conditions: Rattus norvegicus, read-out: ED50 for thrombus prevention (dose that prevents complete thrombotic occlusion in 50% of animals)
From the text: Rat Model of FeCl3-induced Platelet-dependent Arterial Thrombosis
Kurz, K. D., Main, B. W., and Sandusky, G. E., Thromb. […] In this model a platelet-rich, occlusive thrombus is formed in a segment of the rat carotid artery treated locally with a fresh solution of FeCl3 absorbed to a piece of filter paper. The FeCl3 is thought to diffuse into the treated segment of artery and cause de-endothelialization of the affected vessel surface. […] The effect of a test compound on the incidence of occlusive thrombus formation following the application of the FeCl3 is monitored by ultrasonic flowtometry and is used as the primary end point. The use of flowtometry to measure carotid artery blood flow, is a modification of the original procedure in which thermal detection of clot formation was employed. Kurz, K. D., Main, B. W., and Sandusky, G. E., Thromb.
Male Harlan Sprague Dawley rats (420-450 g) were acclimated at least 72 hours prior to use and fasted for 12 hours prior to surgery with free access to water. The animals were prepared, anesthetized with Nembutal followed by the insertion of catheters for blood pressure monitoring, drug and anesthesia delivery. The left carotid artery was isolated by making a midline cervical incision followed by blunt dissection and spreading techniques to separate a 2 cm segment of the vessel from the carotid sheath. A silk suture is inserted under the proximal and distal ends of the isolated vessel to provide clearance for the placement of a ultrasonic flow probe (Transonic) around the proximal end of the vessel. The probe is then secured with a stationary arm.
The test compound was administered as a single intravenous bolus at the doses outlined in Table 4 after placement of the flow probe and 5 minutes prior to the thrombogenic stimulus. At t=0, a 3 mm diameter piece of filter paper (Whatman #3) soaked with 10 microliters of a 35% solution of fresh FeCl3 (made up in water) was applied the segment of isolated carotid artery distal to the flow probe. Blood pressure, blood flow, heart rate, and respiration were monitored for 60 minutes.
The incidence of occlusion (defined as the attainment of zero blood flow) was recorded as the primary end point.
This allows a direct comparison of the antithrombotic efficacy of [3-[(benzylsulfonyl)amino]-2-oxo-1,2-dihydropyridyl]acetyl-L-argininal, with other antithrombotic agents which have also been evaluated in this model as described above. Table 5 lists the ED50 values for several well known anticoagulant agents in this model compared to [3-[(benzylsulfonyl)amino]-2-oxo-1,2-dihydropyridyl]acetyl-L-argininal.

[2] = tested on: clot formation on silk thread in A-V shunt; test: Multiple extracorporeal (A-V) shunt model in rats utilizing oral dosing; type: in vivo; conditions: rat, read-out: ED50 value (dose that reduced the clot size by 50%)
Description: The compounds of Example 10 and 143 were evaluated in a multichamber A-V shunt model in rats. The A-V shunt model is one of the most common and generally used systems to evaluate antithrombotic compounds: Smith, J. R. and White, A. M. Br. J. Pharmacol., 77: 29-38 (1982). In this model a localized clot made up of primarily fibrin with some platelet and macrophage involvement (Shand, R. A. and Smith, J. R. and Wallis, R. B. Thromb. Res., 36: 223-232 (1984)), is formed on an artificial thrombogenic surface (typically a segment of silk or cotton thread) contained in a sialstic chamber which is part of an exteriorized shunt between the carotid artery and jugular vein. The procedure described in this Example is a modified A-V shunt model that allows for oral dosing of test agents and subsequent evaluation of efficacy over a two to three hour window in time.
Briefly, male Harlan Sprague Dawley rats (420-450 g) were acclimated at least 72 hours prior to use. The animals were fasted for 12 hours prior to surgery with free access to water. Unanesthetized animals were grouped into three or four dosage groups (six or seven animals per group) and administered test agents orally via gavage needle, at doses of 1.0, 3.0, 10 and 50 mg/kg for the compound of Example 10, and 3.0, 10 and 30 mg/kg for the Compound of Example 143. Immediately after oral dosing, animals were anesthetized with sodium pentobarbital (Nembutal) given intraperitoneally at a dose of 50 mg/kg body weight, and placed on a isothermal pad to maintain body temperature. The level of anesthesia was monitored every 15 minutes by neuro-response to a tail pinch, respiration and core temperature. The desired depth of surgical anesthesia was maintained by administering subsequent doses (5 mg/kg) intravenously. The left femoral artery was catheterized using standard procedures for blood pressure monitoring and blood sampling, with polyethylene tubing (PE50). The left femoral vein was catheterized with PE50 tubing for delivery of anethestic.
The exteriorized shunts were assembled by connecting two pieces of saline filled 12.5 cm PE90 tubing with a 6 cm piece of PE160 tubing containing a 6 cm piece of silk suture size 3 and clamped with hemostats. A small 0.5 cm portion of the silk thread protrudes from the junction of the chamber with the shunt. The left jugular vein and right carotid artery were catheterized with the ends of the PE90 shunt. The shunt was unclamped and blood allowed to flow from the carotid artery, through the chamber, and exit the shunt via the jugular vein. After 15 minutes, both sides of the chamber were clamped and the suture containing the clot removed following detachment of the arterial end of the chamber. The clot was immediately weighed and recorded. This procedure takes place at predetermined intervals (60, 90, 120, and 150 minutes after oral dosing) to allow assessment of efficacy over a large window in time. Four shunts were placed with flow initiated at 45, 75, 105, and 135 minutes after oral compound administration. Clot weight from the four shunts was the primary endpoint of the protocol. Blood pressure, heart rate core temperature and respiration were monitored continuously. Following termination of the experiment the animals were euthanized with a 120 mg/kg dose of Nembutal. One experiment was performed per animal.
ED50 values were calculated at 60, 90, 120, and 150 minutes after oral dosing of test compound. ED50 is that dose that reduced the clot size by 50%. […]

[3] = molecular target: T1, human alpha thrombin (Homo sapiens, UniProt P00734); test: Thrombin (fIIa) IC50 assay, chromogenic substrate Pefachrome t-PA; type: biochemical
T1 construct: Purified human alpha-thrombin; purchased Enzyme Research Laboratories, Inc
Description: (§1) The ability of compounds of the present invention to act as a selective inhibitor of thrombin catalytic activity was assessed by determining the concentration of compound which inhibited the activity of this enzyme by 50%, (IC50), and comparing this value to that determined for all or some of the following related serine proteases: recombinant tissue plasminogen activator (rt-PA), plasmin, activated protein C, chymotrypsin, factor Xa and trypsin.
(§2) The buffer used for all assays was HBSA (10 mM HEPES, pH 7.5, 150 mM sodium chloride, 0.1% bovine serum albumin).
(§3) The assay for IC50 determinations was conducted by combining in appropriate wells of a Corning microtiter plate, 50 microliters of HBSA, 50 microliters of the test compound at a specified concentration (covering a broad concentration range) diluted in HBSA (or HBSA alone for VO (uninhibited velocity) measurement), and 50 microliters of the enzyme diluted in HBSA. Following a 30 minute incubation at ambient temperature, 50 microliters of the substrate at the concentrations specified below were added to the wells, yielding a final total volume of 200 microliters. The initial velocity of chromogenic substrate hydrolysis was measured by the change in absorbance at 405 nm using a Thermo Max® Kinetic Microplate Reader over a 5 minute period in which less than 5% of the added substrate was utilized. The concentration of added inhibitor which caused a 50% decrease in the initial rate of hydrolysis was defined as the IC50 value.
Enzyme activity was determined using the chromogenic substrate, Pefachrome t-PA (CH3SO2-D-hexahydrotyrosine-glycyl-L-Arginine-p-nitroaniline, obtained from Pentapharm Ltd.). The substrate was reconstituted in deionized water prior to use. Purified human a-thrombin was obtained from Enzyme Research Laboratories, Inc. The buffer used for all assays was HBSA (10 mM HEPES, pH 7.5, 150 mM sodium chloride, 0.1% bovine serum albumin).
IC50 determinations were conducted where HBSA ([…]), a-thrombin (50 μl) and inhibitor (50 μl) (covering a broad concentration range), were combined in appropriate wells and incubated for 30 minutes at room temperature prior to the addition of substrate Pefachrome-t-PA (50 μl). The initial velocity of Pefachrome t-PA hydrolysis was measured by the change in absorbance at 405 nm using a Thermo Max® Kinetic Microplate Reader over a 5 minute period in which less than 5% of the added substrate was utilized. The concentration of added inhibitor which caused a 50% decrease in the initial rate of hydrolysis was defined as the IC50 value.

[4] = molecular target: T2, Human rt-PA (Activase) (Homo sapiens, UniProt P00750); test: biochemical; conditions: 30 minute incubation
T2 construct: purchased Genentech Inc
T2 sequence (P00750 36-562): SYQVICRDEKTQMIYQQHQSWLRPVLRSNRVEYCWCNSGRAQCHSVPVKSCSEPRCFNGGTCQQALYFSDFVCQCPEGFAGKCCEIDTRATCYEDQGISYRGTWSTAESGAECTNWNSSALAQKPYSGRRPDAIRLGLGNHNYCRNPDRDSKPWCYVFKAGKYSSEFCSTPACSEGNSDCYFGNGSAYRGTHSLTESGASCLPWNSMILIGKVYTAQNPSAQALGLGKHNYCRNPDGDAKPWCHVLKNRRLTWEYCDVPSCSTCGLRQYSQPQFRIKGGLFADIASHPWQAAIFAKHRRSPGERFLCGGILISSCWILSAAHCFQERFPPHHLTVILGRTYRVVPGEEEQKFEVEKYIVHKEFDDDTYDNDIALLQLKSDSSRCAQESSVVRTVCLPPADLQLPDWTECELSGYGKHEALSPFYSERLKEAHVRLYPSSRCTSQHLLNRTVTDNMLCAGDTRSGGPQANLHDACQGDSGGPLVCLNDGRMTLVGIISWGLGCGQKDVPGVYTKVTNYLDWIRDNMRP
Description: as §1, §2, §3
Recombinant Tissue Plasminogen Activator (rt-PA) Assay
rt-PA catalytic activity was determined using the substrate, Pefachrome t-PA (CH3SO2-D-hexahydrotyrosine-glycyl-L-arginine-p-nitroaniline, obtained from Pentapharm Ltd.). The substrate was made up in deionized water followed by dilution in HBSA prior to the assay in which the final concentration was 500 micromolar (about 3-times Km). Human rt-PA (Activase®) was obtained from Genentech Inc. The enzyme was reconstituted in deionized water and diluted into HBSA prior to the assay in which the final concentration was 1.0 nM.

[5] = molecular target: human plasmin (Homo sapiens, UniProt P00747); test: biochemical
Chain of human plasmin (P00747 97-580): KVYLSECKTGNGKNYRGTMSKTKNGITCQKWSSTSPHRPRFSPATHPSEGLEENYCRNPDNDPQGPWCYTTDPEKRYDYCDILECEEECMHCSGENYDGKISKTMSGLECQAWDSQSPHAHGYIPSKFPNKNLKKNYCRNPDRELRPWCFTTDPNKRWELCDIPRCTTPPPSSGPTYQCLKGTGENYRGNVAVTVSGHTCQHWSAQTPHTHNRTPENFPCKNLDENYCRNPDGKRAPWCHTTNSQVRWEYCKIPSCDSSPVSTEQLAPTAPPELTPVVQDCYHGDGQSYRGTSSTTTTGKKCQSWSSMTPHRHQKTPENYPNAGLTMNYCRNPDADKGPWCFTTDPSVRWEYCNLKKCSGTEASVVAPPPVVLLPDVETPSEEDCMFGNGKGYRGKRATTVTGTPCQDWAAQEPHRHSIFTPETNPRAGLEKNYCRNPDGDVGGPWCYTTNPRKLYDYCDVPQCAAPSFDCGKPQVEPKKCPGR
Chain of human plasmin (P00747 581-810): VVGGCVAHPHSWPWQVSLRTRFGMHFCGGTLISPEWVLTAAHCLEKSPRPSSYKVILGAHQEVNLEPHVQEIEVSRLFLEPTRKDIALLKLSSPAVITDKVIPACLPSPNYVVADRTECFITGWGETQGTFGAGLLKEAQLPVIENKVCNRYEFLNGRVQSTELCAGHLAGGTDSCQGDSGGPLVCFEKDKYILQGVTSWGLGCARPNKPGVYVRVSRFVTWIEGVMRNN
Description: as §1, §2, §3
Plasmin catalytic activity was determined using the chromogenic substrate, S-2366 [L-pyroglutomyl-L-prolyl-L-arginine-p-nitroaniline hydrochloride], which was obtained from Pharmacia-Upjohn. The substrate was made up in deionized water followed by dilution in HBSA prior to the assay in which the final concentration was 300 micromolar (about 2.5-times Km). Purified human plasmin was obtained from Enzyme Research Laboratories, Inc. The enzyme was diluted into HBSA prior to assay in which the final concentration was […].

[6] = molecular target: T3, human aPC (Homo sapiens, UniProt P04070); test: biochemical; conditions: 30 minute incubation
T3 construct: purchased Hematologic Technologies, Inc
T3 sequence (P04070 43-197): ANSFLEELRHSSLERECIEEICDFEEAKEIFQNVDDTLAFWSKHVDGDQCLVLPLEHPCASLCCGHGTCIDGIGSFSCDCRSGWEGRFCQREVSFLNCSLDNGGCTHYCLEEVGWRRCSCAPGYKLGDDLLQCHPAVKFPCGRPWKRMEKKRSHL
T3 sequence (P04070 212-461): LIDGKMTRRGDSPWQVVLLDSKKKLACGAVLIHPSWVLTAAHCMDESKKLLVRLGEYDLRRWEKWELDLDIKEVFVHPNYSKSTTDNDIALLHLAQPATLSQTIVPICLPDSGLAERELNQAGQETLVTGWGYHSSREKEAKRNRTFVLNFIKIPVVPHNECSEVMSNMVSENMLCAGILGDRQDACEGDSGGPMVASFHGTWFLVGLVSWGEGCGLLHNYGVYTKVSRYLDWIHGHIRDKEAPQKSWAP
Description: as §2
Following a 30 minute incubation at ambient temperature, 50 microliters of the substrate at the concentrations specified below were added to the wells, yielding a final total volume of 200 microliters.
Activated Protein C (aPC) Assay
aPC catalytic activity was determined using the chromogenic substrate, Pefachrome PC (delta-carbobenzloxy-D-lysine-L-prolyl-L-arginine-p-nitroaniline dihydrochloride), obtained from Pentapharm Ltd.). […] Purified human aPC was obtained from Hematologic Technologies, Inc. The enzyme was diluted into HBSA prior to assay in which the final concentration was 1.0 nM.

[7] = 30 minute incubation, read-out: Plasmin IC50 (Table 3B)
[8] = 1.0 nM enzyme, read-out: IC50 rt-PA (Table 2)
[9] = 30 minute incubation, read-out: IC50 Plasmin (Table 2)
[10] = 1.0 nM enzyme, read-out: IC50 aPC (Table 2)

For `CC1CNc2c(cccc2S(=O)(=O)N[C@@H](CCCNC(=N)N)C(=O)N2CC[C@@H](C)C[C@@H]2C(=O)O)C1` (stereo partly drawn) [Argatroban, 2R,4R-4-methyl-1-[N-2-(3-methyl-1,2,3,4-tetrahydro-8-quinolinesulfonyl)-L-argininal]-2-piperdinecarboxylic acid, reference compound], which ED50 [1] is on record?
The ED50 was 3.8 mg/kg.

For `N=C(N)NCCCC(C=O)NC(=O)Cn1cccc(NS(=O)(=O)Cc2ccccc2F)c1=O` (centres unmarked) [Compound 121J], which ED50 ([2]; 1 h, 60 min after oral dose) is on record?
Its ED50 is 22 mg/kg.

And the ED50 ([2]; 1.5 h, 90 min after oral dose)?
The ED50 was 20 mg/kg.

What about the ED50 ([2]; 2 h, 120 min after oral dose) of the same compound?
The ED50 was 24 mg/kg.

What about the ED50 ([2]; 150 min after oral dose) of the same compound?
Its ED50 is 28 mg/kg.

Which results are given for `COc1ccc(OC)c(S(=O)(=O)Nc2ccc(C)n(CC(=O)N[C@H](C=O)CCCNC(=N)N)c2=O)c1` [Compound 126C, 3-[(2,5-dimethoxyphenyl)sulfonylamino-6-methyl-2-oxo-1,2-dihydro-pyridyl]acetyl-L-argininal]?
IC50 [3]: 0.519 nM; rtPA IC50 (Table 3B) [4]: inactive; IC50 [5, 7]: > 2500 nM; aPC IC50 (Table 3B) [6]: inactive

What does the source list for `CCc1ccc(NS(=O)(=O)c2cc(F)ccc2C)c(=O)n1CC(=O)N[C@H](C=O)CCCNC(=N)N` [Compound 126F, [3-(5-fluoro-2-methylphenyl)sulfonylamino-6-ethyl-2-oxo-1,2-dihydro-pyridyl]acetyl-L-argininaln]?
IC50 [3]: 0.71 nM; rtPA IC50 (Table 3B) [4]: inactive; IC50 [5, 7]: ~2500 nM; aPC IC50 (Table 3B) [6]: inactive

How did the IC50 [3] turn out when `CS(=O)(=O)Nc1c(CCc2ccccc2)ccn(CC(=O)N[C@H](C=O)CCCNC(=N)N)c1=O` [Compound 134B, [3-methylsulfonylamino-4-(2-phenylethyl)-2-oxo-1,2-dihydropyridyl]acetyl-L-argininal] was run?
Its IC50 is 7.95 nM.

What about the IC50 ([4]; read-out: rtPA IC50 (Table 3B)) of the same compound?
Its IC50 is > 2500 nM.

What about the IC50 ([5]; read-out: Plasmin IC50 (Table 3B)) of the same compound?
Its IC50 is > 2500 nM.

And the “aPC IC50 (Table 3B)” value [6]?
Its value is “inactive”.

Which IC50 ([3]; 30 minute incubation, read-out: Thrombin IC50 (Table 3C)) does the source give for `COc1cccc(S(=O)(=O)Nc2ccc(C)n(CC(=O)N[C@H](C=O)CCCNC(=N)N)c2=O)c1` [Compound 153A, [3-(3-methoxylphenyl)sulfonylamino-6-methyl-2-oxo-1,2-dihydro-pyridyl]acetyl-L-argininal] here?
Its IC50 is 0.456 nM.

What about the IC50 ([4]; read-out: rtPA IC50 (Table 3C)) of the same compound?
The IC50 was > 2500 nM.

What about the IC50 ([5]; 30 minute incubation, read-out: Plasmin IC50 (Table 3C)) of the same compound?
The IC50 was > 2500 nM.

What about the IC50 ([6]; read-out: aPC IC50 (Table 3C)) of the same compound?
The IC50 was > 2500 nM.

Which IC50 [3] does the source give for `N=C(N)NCCC[C@@H](C=O)NC(=O)Cn1cccc(NS(=O)(=O)c2ccccc2)c1=O` [Compound B, (3-phenylsulfonylamino-2-oxo-1,2-dihydro-pyridyl)acetyl-L-argininal] here?
The IC50 was 0.98 nM.

And the IC50 [4, 8]?
Its IC50 is > 2500 nM.

What about the IC50 [5, 9] of the same compound?
Its IC50 is > 2500 nM.

And the IC50 [6, 10]?
The IC50 was > 2500 nM.

How did the IC50 [3] turn out when `Cc1ncc(NS(=O)(=O)Cc2ccccc2)c(=O)n1CC(=O)N[C@H](C=O)CCCNC(=N)N` [Compound D, (5-benzylsulfonylamino-2-methyl-6-oxo-1,6-dihydro-1-pyrimidinyl)acetyl-L-argininal, trifluoroacetate salt] was run?
Its IC50 is 2.32 nM.

And the IC50 [4, 8]?
The IC50 was > 2500 nM.

And the IC50 [5, 9]?
Its IC50 is > 2500 nM.

What about the IC50 [6, 10] of the same compound?
The IC50 was > 2500 nM.
